Type in all cases: cell-based
In series [1] the target is T1, ERa (NR3A1) (Homo sapiens, UniProt P03372).
T1 sequence (P03372 1-595): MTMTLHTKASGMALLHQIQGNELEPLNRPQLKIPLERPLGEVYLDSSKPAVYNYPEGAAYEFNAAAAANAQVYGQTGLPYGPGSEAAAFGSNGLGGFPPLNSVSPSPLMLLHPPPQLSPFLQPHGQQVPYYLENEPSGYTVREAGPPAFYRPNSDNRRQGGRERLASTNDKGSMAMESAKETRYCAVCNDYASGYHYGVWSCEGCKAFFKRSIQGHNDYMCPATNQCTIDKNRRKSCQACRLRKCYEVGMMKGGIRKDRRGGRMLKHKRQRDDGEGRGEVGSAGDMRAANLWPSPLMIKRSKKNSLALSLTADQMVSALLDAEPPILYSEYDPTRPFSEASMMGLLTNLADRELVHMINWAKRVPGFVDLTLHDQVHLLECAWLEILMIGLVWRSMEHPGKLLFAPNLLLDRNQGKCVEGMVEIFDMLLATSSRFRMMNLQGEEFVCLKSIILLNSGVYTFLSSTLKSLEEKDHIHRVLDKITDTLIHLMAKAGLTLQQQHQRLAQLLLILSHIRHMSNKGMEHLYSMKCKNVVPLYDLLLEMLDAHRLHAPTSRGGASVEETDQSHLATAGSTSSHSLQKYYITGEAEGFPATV
Briefly: nuclear hormone receptor reporter gene assay. The note with it: concentrations up to 10 μM. From the text: (§1) So far oxysterols have been noted to have various physiological activities namely regulate the expression of genes that participate in both sterol and fat metabolism, serve as substrates for the synthesis of bile acids, and are intermediates in the transfer of sterols from the periphery to the liver (Russell, D. W. (2000). Oxysterol biosynthetic enzymes. Biochim. Biophys. Acta 1529, 126-135). […] This included binding assays for 26 different GPCRs, functional assays of 9 different GPCRs, 40 kinase assays, as well as selected ion channels, proteases, transporter and enzyme assays.
In general terms: A reporter such as luciferase makes a cellular process visible.

Series [2] has as its target T2, PPARg (NR1C3) (Homo sapiens, UniProt P37231).
T2 sequence (P37231 1-505): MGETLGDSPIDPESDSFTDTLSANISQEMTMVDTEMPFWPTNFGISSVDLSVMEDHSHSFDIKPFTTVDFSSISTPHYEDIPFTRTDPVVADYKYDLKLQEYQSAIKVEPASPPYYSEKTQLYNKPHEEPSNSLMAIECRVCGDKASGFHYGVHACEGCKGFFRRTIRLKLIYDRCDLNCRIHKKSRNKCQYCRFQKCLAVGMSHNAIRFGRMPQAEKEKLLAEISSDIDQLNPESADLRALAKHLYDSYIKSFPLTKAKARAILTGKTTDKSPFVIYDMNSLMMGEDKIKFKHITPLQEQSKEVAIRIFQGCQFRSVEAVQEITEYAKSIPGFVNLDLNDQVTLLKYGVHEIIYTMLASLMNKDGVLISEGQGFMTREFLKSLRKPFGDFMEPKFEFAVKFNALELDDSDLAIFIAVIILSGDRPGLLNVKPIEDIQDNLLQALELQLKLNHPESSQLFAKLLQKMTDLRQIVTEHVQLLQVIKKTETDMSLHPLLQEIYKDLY
Briefly: nuclear hormone receptor reporter gene assay. Conditions: concentrations up to 10 μM.
Text: as §1

Series [3] concerns the target T3, SXR (NR112) (Homo sapiens, UniProt O75469).
T3 sequence (O75469 1-434): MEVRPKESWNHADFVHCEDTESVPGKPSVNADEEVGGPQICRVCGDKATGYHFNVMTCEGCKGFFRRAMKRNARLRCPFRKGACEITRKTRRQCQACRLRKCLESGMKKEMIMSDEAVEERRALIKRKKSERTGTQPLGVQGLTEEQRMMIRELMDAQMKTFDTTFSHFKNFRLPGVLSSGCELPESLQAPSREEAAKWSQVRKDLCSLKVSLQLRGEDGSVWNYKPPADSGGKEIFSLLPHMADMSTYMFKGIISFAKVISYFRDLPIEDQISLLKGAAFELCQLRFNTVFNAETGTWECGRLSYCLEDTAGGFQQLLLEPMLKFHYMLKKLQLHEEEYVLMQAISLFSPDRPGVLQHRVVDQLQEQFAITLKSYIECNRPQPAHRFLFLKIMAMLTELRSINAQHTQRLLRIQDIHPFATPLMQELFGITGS
Briefly: nuclear hormone receptor reporter gene assay. Conditions: concentrations up to 10 μM.
Text: as §1

In series [4] the target is hEBI2 (Homo sapiens, UniProt P32249). Briefly: β-arrestin Pathhunter assay. Also on record: host or cells: HEK293-BAEA, transient transfection with Fugene6. Conditions: for EC50: HEK293-BAEA transiently transfected with hEBI2-prolink, read-out: EC50, β-arrestin recruitment. From the text: Several assay technologies (Transfluor™, (Ghosh, R. N., et al. (2005). Quantitative cell-based high-content screening for vasopressin receptor agonists using transfluor technology. J Biomol Screen 10.; Granas, C., at al. (2005). High content screening for G protein-coupled receptors using cell-based protein translocation assays. Comb Chem High Throughput Screen 8.); Pathhunter™, (Hammer, M. M., et al. (2007). A novel enzyme complementation-based assay for monitoring G-protein-coupled receptor internalization. Faseb J, 21; Wehrman, T. S., at al. (2005). Enzymatic detection of protein translocation. Nat Methods 2), Tango™, (Barnea, G., et al. (2008). Here we have applied the Pathhunter™ technology (DiscoverRx) to probe for an interaction of EBI2 with B-arrestin. For that human EBI2 was cloned into the Prolink™ vector (DiscoveRx) for GPCR-prolink fusion protein production. Parental HEK293 cells that stably express β-arrestin2-β-gal-EA fusion protein (HEK293-BAEA) were detached and transiently transfected with hEBI2-prolink vector using Fugene6 transfection reagent in suspension mode. Transfected cells in assay medium (Phenol Red-free DMEM with 10% FBS) were plated into white solid 384 well plates at 15,000 cells/25 μl/well. After overnight incubation, 200 nl of test molecules were transferred into the cell plates by PinTool™ (GNF Systems) followed by 1-2 hour incubation at 37° C., 5% CO2. Flash detection reagents were added at 12.5 μl/well. After 5 min—1 hr room temperature incubation, the cell plates were read on CLIPR™ (Perkin Elmer) or Acquest™ (Molecular Devices) for luminescence signal.
Sequence of hEBI2 (P32249 whole entry): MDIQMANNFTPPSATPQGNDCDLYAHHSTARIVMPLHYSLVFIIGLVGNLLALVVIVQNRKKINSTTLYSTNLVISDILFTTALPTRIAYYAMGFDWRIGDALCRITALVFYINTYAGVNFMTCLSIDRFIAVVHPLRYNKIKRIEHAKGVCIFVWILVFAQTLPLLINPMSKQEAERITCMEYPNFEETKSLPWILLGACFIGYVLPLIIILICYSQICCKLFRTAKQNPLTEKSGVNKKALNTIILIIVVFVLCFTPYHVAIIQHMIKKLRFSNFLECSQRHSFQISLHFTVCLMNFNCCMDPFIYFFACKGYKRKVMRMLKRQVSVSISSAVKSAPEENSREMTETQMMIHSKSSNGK
(Activated receptors often draw arrestin, which recruitment assays turn into a signal.)

A word on the EC50: it is the midpoint of the concentration-response curve.

Take `C[C@H](CCCC(C)(C)O)[C@H]1CC[C@H]2[C@@H]3[C@H](O)C=C4C[C@@H](O)CC[C@]4(C)[C@H]3CC[C@]12C` [7a,25DHC, cholest-5-ene-3b,7a,25-triol]: the “activation of ERa” value in series [1] is listed as “did not activate”. For the same molecule, the “activation of PPARg” value in series [2] is “did not activate”. In series [3], the “activation of SXR” value is listed as “did not activate”. Also, the concentration giving a half-maximal response (EC50) in series [4] came out at 8 nM.

As to `CC(CO)CCC[C@@H](C)[C@H]1CC[C@H]2[C@@H]3[C@H](O)C=C4C[C@@H](O)CC[C@]4(C)[C@H]3CC[C@]12C` (stereo partly drawn) [7a,27DHC, cholest-5-ene-3b,7a,27-triol], the “activation of ERa” value in series [1] is on record as “did not activate”. The “activation of PPARg” value in series [2] was “did not activate”. In series [3], the “activation of SXR” value is recorded as “did not activate”.

Turning to `C[C@H](CCCC(C)(C)O)[C@H]1CC[C@H]2[C@@H]3[C@@H](O)C=C4C[C@@H](O)CC[C@]4(C)[C@H]3CC[C@]12C` [7b,25DHC, cholest-5-ene-3b,7b,25-triol], in series [4], the “efficacy, β-arrestin recruitment” value was found to be 48% and the 50% effective concentration (EC50) was 837 nM.

These data come from patent US8497075B2, “Methods of identifying a modulator that inhibits the binding between Epstein-Barr virus induced receptor 2 and cholesterol derived ligands” (Novartis AG, priority 2008, dated 2013).
